Results: patent US10059695B2, “Cot modulators and methods of use thereof” (Gilead Sciences, Inc., priority 2016, dated 2018)

What was measured:
[1] = target: Human Cot (Homo sapiens (Human), UniProt P41279); test: High Throughput Cot Biochemical Assay (KinEASE TR-FRET); conditions: recombinant human Cot catalytic domain, 400 μM ATP
Procedure: Example 24: High Throughput Cot Biochemical Assay
Human Cot enzyme activity was measured using KinEASE (Cisbio), a time-resolved fluorescence resonance energy transfer (TR-FRET) immunoassay. In this assay, Cot-catalyzes the phosporylation of a XL665-labeled peptide substrate. Europium conjugated […] specific antibody binds the resulting phosphorylated peptide. Formation of phosphorylated peptide is quantified by TR-FRET with Europium as the donor and XL665 the acceptor in a 2-step endpoint assay. Purified recombinant human Cot catalytic domain (30-397 amino acids) was purchased from Carna Biosciences. In brief, test compounds serially diluted in DMSO were delivered into Proxy white, low volume, 384 well plates using the Echo 550 acoustic liquid dispenser (Labcyte®). Cot enzyme and substrates were dispensed into assay plates using a Multi-Flo (Bio-Tek Instruments). The standard 5 μL reaction mixture contained 400 μM ATP, 1 μM STK3 peptide, 5 nM of Cot in reaction buffer (10 mM MOPS, pH 7.0, 0.02% NaN3, 0.5 mg/mL BSA, 10 mM MgOAc, 1 mM DTT, 0.025% NP-40, 1.5% glycerol) and 0.1% DMSO. After 2.5 hrs of incubation at room temperature, 5 μL of Stop and Detect Solution (1:200 Europium Cryptate labeled anti-phosphorylated peptide antibody solution and 125 nM strepavidin-XL665 Tracer in a 50 mM Hepes pH 7.0 detection buffer containing sufficient EDTA) was added. The plate was then further incubated for 120 minutes at room temperature and read using an Envision 2103 Multilabeled reader (PerkinElmer) with excitation/emission/FRET emission at 340 nm/615 nm/665 nm, respectively. Fluorescence intensities at 615 nm and 665 nm emission wavelengths were expressed as a ratio (665 nm/615 nm).

[2] = tested on: TNFα; test: Cot Monocyte TNFα Cell Based Assay; conditions: LPS-stimulated cryopreserved human monocytes, TNFα by TR-FRET
Procedure: Example 23: Cot Monocyte TNFα Cell Based Assay
Cryopreserved human monocytes (Stem Cell Technologies) were thawed, diluted in RPMI with Glutamax (10 mM HEPES, 1× Pen-Strep, 55 μM β-mercaptoethanol, 1 mM Sodium pyruvate) media containing 10% FBS to 0.125×10^6 cells/ml and recovered at 37° C. for 2 hours. The cell suspension was then plated at a density of 5,000 cells/well onto black 384 well Greiner clear bottom plates. Plates were pre-spotted with test compounds and serially diluted in DMSO where 200 nL/well were delivered using the Echo 550 acoustic liquid dispenser (Labcyte®) for a final DMSO concentration of 0.5%. Plated cells were treated with compound for 1 hour at 37° C. Cells were then stimulated with 50 μg/ml of LPS (Sigma) excluding outside columns of plate used for unstimulated cell control wells. Cells were incubated for an additional 4 hours at 37° C. Cells were then spun out of the media and 5 μl of sample were taken and analyzed for total TNFα content using the TR-FRET Human TNFα detection system (CisBio). This system utilizes two labeled antibodies (cryptate and XL665) that bind to two different epitopes of the TNFα molecule and produce FRET signal proportional to the concentration of TNFα in the sample. Detection antibodies are mixed 50:50 and 5 μL were dispensed into each well. Plates were covered with clear seals and incubated at room temp overnight. The following morning plates were read using an Envision 2103 Multilabeled reader (PerkinElmer) with excitation/emission/FRET emission at 340 nm/615 nm/665 nm, respectively. Fluorescence intensities at 615 nm and 665 nm emission wavelengths were expressed as a ratio (665 nm/615 nm). Percent of control was calculated as follows: % Control=100×(RatioSample−Ratio0% stimulation)/(Ratio100% Stimulation−Ratio0% Stimulation) where unstimulated cells (0% stimulation) were the negative control and stimulated cells (100% stimulation) were used as the positive control.

Chain of Human Cot (P41279 30-397): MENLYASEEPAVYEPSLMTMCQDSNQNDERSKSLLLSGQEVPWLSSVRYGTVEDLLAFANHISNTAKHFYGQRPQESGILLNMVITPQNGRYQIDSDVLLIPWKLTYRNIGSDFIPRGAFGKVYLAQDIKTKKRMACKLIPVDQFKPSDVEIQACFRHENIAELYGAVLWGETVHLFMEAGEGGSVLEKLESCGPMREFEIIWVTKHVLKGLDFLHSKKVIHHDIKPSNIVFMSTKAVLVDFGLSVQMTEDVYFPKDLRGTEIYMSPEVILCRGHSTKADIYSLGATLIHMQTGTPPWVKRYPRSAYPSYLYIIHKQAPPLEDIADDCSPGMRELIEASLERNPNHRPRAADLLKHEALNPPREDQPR

Row | IC50 [1] | EC50 [2] | Compound
1 | 5 nM | 101 nM | [2H][C@](Nc1ccc2ncnc(NCC(C)(C)C)c2c1)(c1ccc(F)cc1)c1cn(C2CC2)nn1 [I-1, (S)-N^6-((1-cyclopropyl-1H-1,2,3-triazol-4-yl)(4-fluorophenyl)methyl-d)-N^4-neopentylquinazoline-4,6-diamine]
2 | 2.4 nM | 20 nM | [2H][C@@](Nc1cc(C#N)c2ncnc(NCC(C)(C)C)c2c1)(c1cn(C2CC2)nn1)c1ccccc1Cl [I-19, (S)-6-(((2-chlorophenyl)(1-cyclopropyl-1H-1,2,3-triazol-4-yl)methyl-d)amino)-4-(neopentylamino) quinazoline-8-carbonitrile]
3 | 7.7 nM | 85 nM | CC(C)(C)CNc1ncnc2ccc(N[C@@H](c3ccc(F)cc3)c3cn(C4CC4)nn3)cc12 [I-2, (S)-N^6-((1-cyclopropyl-1H-1,2,3-triazol-4-yl)(4-fluorophenyl)methyl)-N^4-neopentylquinazoline-4,6-diamine]
4 | 1.7 nM | 36 nM | Cc1nc(F)ccc1[C@H](Nc1cc(C#N)c2ncnc(NCC(C)(C)C)c2c1)c1cn(C2(C(F)F)CC2)nn1 [I-22, (S)-6-(((1-(1-(difluoromethyl)cyclopropyl)-1H-1,2,3-triazol-4-yl)(6-fluoro-2-methylpyridin-3-yl)methyl)amino)-4-(neopentylamino) quinazoline-8-carbonitrile]
5 | 13 nM | > 1000 nM | [2H][C@@](Nc1cc(Cl)c2ncnc(NCC(C)(C)C)c2c1)(c1cn(CC(=O)O)nn1)c1ccccc1Cl [I-10, (S)-2-(4-(((8-chloro-4-(neopentylamino)quinazolin-6-yl)amino)(2-chlorophenyl)methyl-d)-1H-1,2,3-triazol-1-yl)acetic acid]
